Here are results for one molecule from BindingDB's records for doi:10.1021/jm00102a007 (University of South Florida, 1993).

The target in this assay is T1, Adenosine receptor A1 (Cavia porcellus, UniProt P47745).
T1 sequence (P47745 whole entry): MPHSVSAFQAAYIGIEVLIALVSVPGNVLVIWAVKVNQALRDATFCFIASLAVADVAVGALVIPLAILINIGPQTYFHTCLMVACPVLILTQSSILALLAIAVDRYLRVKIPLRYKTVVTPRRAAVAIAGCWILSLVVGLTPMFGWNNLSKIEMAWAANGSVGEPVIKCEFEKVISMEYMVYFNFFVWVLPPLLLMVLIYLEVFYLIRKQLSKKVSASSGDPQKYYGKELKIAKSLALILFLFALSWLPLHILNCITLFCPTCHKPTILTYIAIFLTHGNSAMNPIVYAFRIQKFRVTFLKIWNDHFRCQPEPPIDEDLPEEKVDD
As to the kind of experiment: ChEBML_29278. The source says: In vitro prolonging of the stimulus-QRS interval in guinea pig heart.

One may read the EC50 as the concentration that produces a half-maximal response. A low value points to higher potency in that assay. `CCCCCN=Nc1nc(N)c2ncn(C3O[C@H](CO)[C@@H](O)[C@H]3O)c2n1` (stereo partly specified) had an EC50 of 25.1 µM.
